Drawing on patent US20070299072A1, “KV1.5 POTASSIUM CHANNEL INHIBITORS” (Wyeth, priority 2006, published 2007), this text covers inhibition and IC50 for 5 compounds.

SMILES strings stand for the structures.

Common to all, as to assay type: cell-based
One data set concerns the target T1, Kv1.5 (Homo sapiens, UniProt P22460).
T1 construct: expressed in transfected cells; host or cells: HEK or LTK- cells
The data set is described as follows: Kv1.5 Patch Clamp EP (whole cell patch clamp; single point at 1 μM and IC50). To be noted: for inhibition at 1 µM: single point at 1.0 μM, Kv1.5 stably over expressed in HEK or LTK- cells; for IC50: concentration response. As to the method: The external solution is standard Tyrodes solution. […] Inhibition was measured at the end of the 1 second pulses and expressed relative to controls. Initial Kv1.5 inhibition is estimated by single point determinations done at 1 μM.
On the technique in general: The patch-clamp technique gives a direct electrical read-out from membranes.

The target in another data set is T2, HERG (Homo sapiens, UniProt Q12809).
T2 construct: expressed in transfected cells; host or cells: HEK cells
The data set can be described thus: HERG Patch Clamp EP (whole cell patch clamp, tail currents; single point at 10 μM and IC50). To be noted: for inhibition at 10 µM: human, HEK cells stably overexpressing HERG, single point at 10 μM, HERG in HEK cells, read-out: HERG % Inhib. @ 10 μM; for IC50: concentration response. The text has this: The external solution is standard Tyrodes solution.

The next data set has as its system L-type calcium channels. The data set can be described thus: FLIPR L-type Calcium Channel Assay (calcium influx in HL-1 cells after KCl). To be noted: read-out: L-type Ca2+ IC50. An outline of the steps: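 HL-1 cardiomyocytes loaded with FLIPR calcium dye for 60 min at 37° C in Tyrode's pH 7.35 with 2.5 mM probenecid, then preincubated 15 min with compounds. Channels were opened by 20 mM KCl final, and fluorescence was recorded for 5 min. Influx expressed as % control gave concentration-response IC50.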

T2 sequence (Q12809 whole entry): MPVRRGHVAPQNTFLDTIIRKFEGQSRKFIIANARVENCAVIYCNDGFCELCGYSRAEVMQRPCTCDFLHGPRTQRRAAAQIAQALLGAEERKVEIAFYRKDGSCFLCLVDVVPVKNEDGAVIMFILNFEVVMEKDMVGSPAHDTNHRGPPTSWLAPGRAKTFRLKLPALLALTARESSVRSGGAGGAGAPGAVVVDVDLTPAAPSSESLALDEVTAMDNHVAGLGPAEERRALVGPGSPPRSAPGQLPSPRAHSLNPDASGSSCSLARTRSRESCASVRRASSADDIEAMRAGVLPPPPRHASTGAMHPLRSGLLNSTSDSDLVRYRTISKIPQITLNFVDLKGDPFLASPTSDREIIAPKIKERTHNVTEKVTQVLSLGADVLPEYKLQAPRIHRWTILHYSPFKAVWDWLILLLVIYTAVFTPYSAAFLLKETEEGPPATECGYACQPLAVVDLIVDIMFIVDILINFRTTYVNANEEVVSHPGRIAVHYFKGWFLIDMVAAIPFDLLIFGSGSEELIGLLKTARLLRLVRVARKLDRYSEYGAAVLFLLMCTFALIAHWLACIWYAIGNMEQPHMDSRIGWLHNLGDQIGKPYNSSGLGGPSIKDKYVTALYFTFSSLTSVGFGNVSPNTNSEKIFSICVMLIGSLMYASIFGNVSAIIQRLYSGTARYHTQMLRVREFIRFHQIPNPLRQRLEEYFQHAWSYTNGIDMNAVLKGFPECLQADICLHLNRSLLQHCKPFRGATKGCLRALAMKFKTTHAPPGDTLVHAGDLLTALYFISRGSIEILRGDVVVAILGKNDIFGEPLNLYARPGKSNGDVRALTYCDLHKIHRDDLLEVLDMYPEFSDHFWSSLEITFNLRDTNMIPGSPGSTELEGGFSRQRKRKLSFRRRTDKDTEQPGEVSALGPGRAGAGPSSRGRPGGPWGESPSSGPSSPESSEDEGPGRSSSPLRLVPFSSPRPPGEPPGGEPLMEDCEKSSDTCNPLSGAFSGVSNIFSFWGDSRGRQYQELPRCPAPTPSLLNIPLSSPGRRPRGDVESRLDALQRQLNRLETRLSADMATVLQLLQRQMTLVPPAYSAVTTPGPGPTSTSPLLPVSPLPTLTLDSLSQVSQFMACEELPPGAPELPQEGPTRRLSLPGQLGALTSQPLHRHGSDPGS
T1 sequence (P22460 whole entry): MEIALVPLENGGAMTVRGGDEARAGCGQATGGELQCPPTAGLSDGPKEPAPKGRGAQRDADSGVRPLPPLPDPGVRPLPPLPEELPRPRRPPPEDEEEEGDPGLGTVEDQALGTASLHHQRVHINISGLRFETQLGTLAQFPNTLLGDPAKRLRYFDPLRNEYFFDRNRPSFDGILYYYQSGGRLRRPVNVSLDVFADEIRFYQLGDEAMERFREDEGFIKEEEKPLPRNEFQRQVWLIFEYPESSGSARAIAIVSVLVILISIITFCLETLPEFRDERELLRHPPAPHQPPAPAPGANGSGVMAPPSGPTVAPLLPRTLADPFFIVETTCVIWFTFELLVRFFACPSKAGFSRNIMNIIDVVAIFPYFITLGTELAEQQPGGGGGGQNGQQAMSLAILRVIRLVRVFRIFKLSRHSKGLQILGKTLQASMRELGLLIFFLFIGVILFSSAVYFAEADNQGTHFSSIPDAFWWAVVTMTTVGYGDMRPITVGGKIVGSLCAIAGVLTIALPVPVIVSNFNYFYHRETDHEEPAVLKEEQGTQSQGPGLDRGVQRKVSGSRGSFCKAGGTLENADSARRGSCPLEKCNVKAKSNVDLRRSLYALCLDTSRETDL

On Kv1.5, `COc1ccc(CCN2C(=O)C3(CCN(C(=O)n4ccnc4)CC3)N(C)C2c2ccc(C3CC3)cc2)cc1` (centres unmarked) [Compound 91, 2-(4-cyclopropylphenyl)-8-(1H-imidazol-1-ylcarbonyl) —3-[2-(4-methoxyphenyl)ethyl]-1-methyl-1,3,8-triazaspiro[4.5]decan-4-one] displayed an inhibition at 1 µM of 87%. In addition, at HERG, the inhibition at 10 µM was 72%. For the same compound, the IC50 – broadly, the concentration at which inhibition is half-maximal – in the data set on L-type calcium channels was determined as 13 µM.

In turn, `COc1ccc(CCN2C(=O)C3(CCN(S(C)(=O)=O)CC3)N(C(=O)C(F)(F)F)C2c2ccc(C3CC3)cc2)cc1` (centres unmarked) [Compound 92, 2-(4-cyclopropylphenyl)-3-[2-(4-methoxyphenyl)ethyl]-8-(methylsulfonyl)-1-(trifluoroacetyl)-1,3,8-triazaspiro[4.5]decan-4-one] displayed an inhibition at 1 µM at Kv1.5 of 81%. Also, on HERG, the inhibition at 10 µM was determined as 73%. Besides, the IC50 with L-type calcium channels is 14 µM.

As for `COc1ccc(CCN2C(=O)C3(CCN(C(=O)OC(C)(C)C)CC3)NC2Cc2ccc(C(C)(C)C)cc2)cc1` (centres unmarked) [Compound 96, 2-(4-tert-butylbenzyl)-3-[2-(4-methyoxyphenyl)ethyl]-4-oxo-1,3,8-triaza-spiro[4.5]decane-8-carboxylic acid tert-butyl ester], at Kv1.5, the IC50 is 0.393 µM and the inhibition at 1 µM amounted to 96%. On HERG, the inhibition at 10 µM was 12%. The concentration for half-maximal inhibition (IC50) with L-type calcium channels was 12 µM.

Take `COc1ccc(CCN2C(=O)C3(CCN(C(N)=O)CC3)N(C)[C@@H]2c2ccc(C3CC3)cc2)cc1` [Compound 98, (S)-2-(4-cyclopropylphenyl)-3-[2-(4-methoxyphenyl)ethyl]-1-methyl-4-oxo-1,3,8-triaza-spiro[4.5]decane-8-carboxylic acid amide]: on Kv1.5, the IC50 worked out at 0.32 µM and the inhibition at 1 µM stood at 90%. At HERG, the IC50 was determined as 13 µM and the inhibition at 10 µM was determined as 13%. In addition, the IC50 in the data set with L-type calcium channels was found to be 13 µM.

As for `COc1ccc(CCN2C(=O)C3(CCN(C(N)=O)CC3)N(C)[C@H]2c2ccc(C3CC3)cc2)cc1` [Compound 99, (R)-2-(4-cyclopropylphenyl)-3-[2-(4-methoxyphenyl)ethyl]-1-methyl-4-oxo-1,3,8-triaza-spiro[4.5]decane-8-carboxylic acid amide], on Kv1.5, the IC50 stood at 0.397 µM and the inhibition at 1 µM stood at 80%. In addition, at HERG, the 50% inhibitory concentration (IC50) was 16 µM and the inhibition at 10 µM was determined as 24%. In addition, the IC50 in the data set on L-type calcium channels was 24 µM.
